# Patent publication US20110171135A1, “PEST-CONTROL COMPOSITIONS AND METHODS HAVING HIGH TARGET AND LOW NON-TARGET ACTIVITY” (priority 2008, published 2011)
# How the values were obtained:
# tyramine receptor (TyrR) = target: T1, tyramine receptor (TyrR) (Drosophila melanogaster, UniProt P22270); assay: Tyramine receptor binding with 3H-tyramine in transfected Schneider cells
# T1 construct: The open reading frame of the Drosophila tyramine receptor (TyrR) may be amplified via PCR; expressed in transfected cells; host or cells: Drosophila Schneider cells
# T1 sequence (P22270 27-601): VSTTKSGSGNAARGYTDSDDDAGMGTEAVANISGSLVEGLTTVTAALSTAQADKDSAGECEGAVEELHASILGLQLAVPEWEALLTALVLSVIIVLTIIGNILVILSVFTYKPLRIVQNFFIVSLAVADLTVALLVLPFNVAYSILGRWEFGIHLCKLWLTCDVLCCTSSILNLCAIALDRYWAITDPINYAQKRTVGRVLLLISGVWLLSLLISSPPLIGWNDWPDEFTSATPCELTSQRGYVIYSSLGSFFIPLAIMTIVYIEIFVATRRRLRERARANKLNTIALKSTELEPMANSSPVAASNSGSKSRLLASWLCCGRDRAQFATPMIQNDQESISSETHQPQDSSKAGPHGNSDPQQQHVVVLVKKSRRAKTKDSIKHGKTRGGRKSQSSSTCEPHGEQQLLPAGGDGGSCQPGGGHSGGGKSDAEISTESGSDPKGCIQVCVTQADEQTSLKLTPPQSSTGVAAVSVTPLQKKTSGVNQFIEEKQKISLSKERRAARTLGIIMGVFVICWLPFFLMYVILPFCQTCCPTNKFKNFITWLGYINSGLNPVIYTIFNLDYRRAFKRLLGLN
# Excerpt: Tyramine receptor may be amplified, for example, from a Drosophila melanogaster head cDNA phage library. Phage DNA may be purified from this library by known methods using a liquid culture lysate. The open reading frame of the Drosophila tyramine receptor (TyrR) may be amplified via PCR, and the PCR product may be digested, and the TyrR open reading frame may be inserted into an expression vector using known methods, and transfected Schneider cell clones may be prepared.
# Tyramine receptor binding/uptake may be performed to determine which of the transfected clones have the highest levels of functionally active tyramine receptor protein, and the selected clone may be propagated and stored in liquid nitrogen. Aliquots of the selected clone are grown for whole cell binding and for plasma membrane preparation for kinetic and screening studies.
# For binding studies, cells transfected with the tyramine receptor (about 1×10^6 cells/ml) are cultured in each well of a multi-well plate, and binding is assessed using ^3H-tyramine and unlabeled tyramine. […] Saturation binding experiments may be performed to determine Bmax and Kd values for TyrR.
# [1] = test system: tyramine receptor mutant (TyrRneo30) strains; format: in vivo, Drosophila; details: topically applied at LD50 determined against wild type; mortality 24 h after treatment; FIG. 4
# Procedure: LD50 values of tested chemicals (determined against wild type Drosophila) were topically applied against wild type and tyramine receptor mutant (TyrRneo30) strains. Mortality was determined 24 h after treatment. Data are the average of three replicates, 5 flies per replicate. This experiment was repeated five times.
# [2] = test system: wild-type strain of E. coli; assay: MIC over successive weeks (resistance development) in E. coli; format: cell-based; details: MIC determined weekly and applied, repeated for 4 weeks
# Procedure: Test compositions and conventional pesticides are compared to determine their respective ability to maintain pesticidal effectiveness over successive generations of pest species. For example, a wild-type strain of E. coli is treated with both penicillin (group 1) and a test composition from Table 1 or Table 2 (group 2). MIC (minimum inhibitory concentration; the lowest concentration of an antibacterial that will inhibit the visible growth of a microorganism after overnight incubation) values are determined at 1-week post-treatment for both groups, and the appropriate MIC amount is applied to both test populations. This is repeated for 4 weeks. […] In contrast, the MIC value for group 2 remains static, indicating a lack of resistance development among the group 2 population.
compound,measurement,setting,value
"NCCc1ccc(O)cc1 [Blend 3H-tyramine, ^3H-tyramine]",3H-tyramine concentration at which maximum specific binding occurs,tyramine receptor (TyrR); cells transfected with the tyramine receptor,about 5 nM
Cc1ccc(C(C)C)cc1O [carvacrol],effect (mortality) on Drosophila expressing a mutant form of the tyramine receptor,[1],did not affect
NCCc1ccc(O)cc1 [tyramine],response of untransfected cells to tyramine,"tyramine receptor (TyrR); untransfected cells, concentration as high as about 100 μM",do not respond
penicillin,course of the MIC value over time (resistance development),[2],increases over time
